Test results published in patent US20260070903A1, “NOVEL PYRIDO[3,4-D]PYRIMIDIN-8-ONE DERIVATIVE HAVING PROTEIN KINASE INHIBITORY ACTIVITY, AND PHARMACEUTICAL COMPOSITION FOR PREVENTING, ALLEVIATING, OR TREATING CANCER, COMPRISING SAME” (KOREA INSTITUTE OF SCIENCE AND TECHNOLOGY, priority 2019, published 2026).

Legend:
FLT4 = FLT4 (Homo sapiens, UniProt P35916); experiment: Kinase panel biochemical assay, FLT4; settings: single concentration of 1 μM, read-out: percent inhibition of kinase
Protocol: (§1) As a test compound, Compound No. 55 was used. The percent inhibition of each kinase when treated with the test compound at a single concentration of 1 μM was measured, and the residual enzyme activity values (%) of the kinases were calculated. Kinases whose calculated residual enzyme activity values (%) was 30% or less (i.e., kinases inhibited by 70% or more) are as follows: […]

EPHA4 = EPHA4 (Homo sapiens, UniProt P54764); experiment: Kinase panel biochemical assay, EPHA4; settings: single concentration of 1 μM, read-out: percent inhibition of kinase
Protocol: as §1

ZAK = ZAK (Homo sapiens, UniProt Q9NYL2); experiment: Kinase panel biochemical assay, ZAK; settings: single concentration of 1 μM, read-out: percent inhibition of kinase
Protocol: as §1

TXK = TXK (Homo sapiens, UniProt P42681); experiment: Kinase panel biochemical assay, TXK; settings: single concentration of 1 μM, read-out: percent inhibition of kinase
Chain of TXK (P42681 whole entry): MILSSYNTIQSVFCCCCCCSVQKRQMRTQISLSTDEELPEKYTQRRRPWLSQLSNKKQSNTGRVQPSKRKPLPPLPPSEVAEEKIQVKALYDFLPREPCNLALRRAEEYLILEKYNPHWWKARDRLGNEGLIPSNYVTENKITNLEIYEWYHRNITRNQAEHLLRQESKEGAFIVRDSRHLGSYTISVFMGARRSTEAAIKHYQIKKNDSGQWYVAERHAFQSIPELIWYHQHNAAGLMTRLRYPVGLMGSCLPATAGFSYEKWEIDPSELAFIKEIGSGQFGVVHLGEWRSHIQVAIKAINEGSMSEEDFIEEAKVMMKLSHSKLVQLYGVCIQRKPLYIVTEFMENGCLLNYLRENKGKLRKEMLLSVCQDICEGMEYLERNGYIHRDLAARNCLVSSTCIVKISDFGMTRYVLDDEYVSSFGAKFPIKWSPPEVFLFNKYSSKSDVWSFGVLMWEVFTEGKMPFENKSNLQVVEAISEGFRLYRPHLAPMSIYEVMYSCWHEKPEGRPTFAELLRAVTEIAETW
Protocol: as §1

PEAK1 = PEAK1 (Homo sapiens, UniProt Q9H792); experiment: Kinase panel biochemical assay, PEAK1; settings: single concentration of 1 μM, read-out: percent inhibition of kinase
Protocol: as §1

EPHB1 = EPHB1 (Homo sapiens, UniProt P54762); experiment: Kinase panel biochemical assay, EPHB1; settings: single concentration of 1 μM, read-out: percent inhibition of kinase
Protocol: as §1

FGFR2 = FGFR2 (Homo sapiens, UniProt P21802); experiment: Kinase panel biochemical assay, FGFR2; settings: single concentration of 1 μM, read-out: percent inhibition of kinase
Chain of FGFR2 (P21802 22-821): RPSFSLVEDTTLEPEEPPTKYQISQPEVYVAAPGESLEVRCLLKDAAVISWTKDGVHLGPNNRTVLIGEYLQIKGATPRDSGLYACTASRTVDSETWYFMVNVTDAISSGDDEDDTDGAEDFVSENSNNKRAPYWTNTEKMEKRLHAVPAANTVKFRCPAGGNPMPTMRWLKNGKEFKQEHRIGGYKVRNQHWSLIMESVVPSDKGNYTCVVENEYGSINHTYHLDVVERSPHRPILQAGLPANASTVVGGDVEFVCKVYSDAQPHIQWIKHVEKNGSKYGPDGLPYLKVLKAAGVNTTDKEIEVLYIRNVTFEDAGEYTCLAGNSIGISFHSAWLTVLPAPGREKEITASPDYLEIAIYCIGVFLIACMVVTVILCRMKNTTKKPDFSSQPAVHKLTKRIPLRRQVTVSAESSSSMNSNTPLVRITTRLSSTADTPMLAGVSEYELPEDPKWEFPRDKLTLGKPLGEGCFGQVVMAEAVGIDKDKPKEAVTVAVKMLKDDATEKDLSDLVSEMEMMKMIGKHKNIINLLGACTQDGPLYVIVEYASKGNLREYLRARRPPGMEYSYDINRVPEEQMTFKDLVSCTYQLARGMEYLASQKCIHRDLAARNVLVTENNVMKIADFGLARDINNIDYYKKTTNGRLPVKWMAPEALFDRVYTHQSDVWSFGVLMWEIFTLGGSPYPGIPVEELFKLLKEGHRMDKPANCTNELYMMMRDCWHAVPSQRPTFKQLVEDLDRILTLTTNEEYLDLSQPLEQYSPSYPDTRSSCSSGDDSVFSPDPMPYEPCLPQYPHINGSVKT
Protocol: as §1

FRK = FRK (Homo sapiens, UniProt P42685); experiment: Kinase panel biochemical assay, FRK; settings: single concentration of 1 μM, read-out: percent inhibition of kinase
Protocol: as §1

EPHA5 = EPHA5 (Homo sapiens, UniProt P54756); experiment: Kinase panel biochemical assay, EPHA5; settings: single concentration of 1 μM, read-out: percent inhibition of kinase
Protocol: as §1

EPHA2 = EPHA2 (Homo sapiens, UniProt P29317); experiment: Kinase panel biochemical assay, EPHA2; settings: single concentration of 1 μM, read-out: percent inhibition of kinase
Chain of EPHA2 (P29317 24-976): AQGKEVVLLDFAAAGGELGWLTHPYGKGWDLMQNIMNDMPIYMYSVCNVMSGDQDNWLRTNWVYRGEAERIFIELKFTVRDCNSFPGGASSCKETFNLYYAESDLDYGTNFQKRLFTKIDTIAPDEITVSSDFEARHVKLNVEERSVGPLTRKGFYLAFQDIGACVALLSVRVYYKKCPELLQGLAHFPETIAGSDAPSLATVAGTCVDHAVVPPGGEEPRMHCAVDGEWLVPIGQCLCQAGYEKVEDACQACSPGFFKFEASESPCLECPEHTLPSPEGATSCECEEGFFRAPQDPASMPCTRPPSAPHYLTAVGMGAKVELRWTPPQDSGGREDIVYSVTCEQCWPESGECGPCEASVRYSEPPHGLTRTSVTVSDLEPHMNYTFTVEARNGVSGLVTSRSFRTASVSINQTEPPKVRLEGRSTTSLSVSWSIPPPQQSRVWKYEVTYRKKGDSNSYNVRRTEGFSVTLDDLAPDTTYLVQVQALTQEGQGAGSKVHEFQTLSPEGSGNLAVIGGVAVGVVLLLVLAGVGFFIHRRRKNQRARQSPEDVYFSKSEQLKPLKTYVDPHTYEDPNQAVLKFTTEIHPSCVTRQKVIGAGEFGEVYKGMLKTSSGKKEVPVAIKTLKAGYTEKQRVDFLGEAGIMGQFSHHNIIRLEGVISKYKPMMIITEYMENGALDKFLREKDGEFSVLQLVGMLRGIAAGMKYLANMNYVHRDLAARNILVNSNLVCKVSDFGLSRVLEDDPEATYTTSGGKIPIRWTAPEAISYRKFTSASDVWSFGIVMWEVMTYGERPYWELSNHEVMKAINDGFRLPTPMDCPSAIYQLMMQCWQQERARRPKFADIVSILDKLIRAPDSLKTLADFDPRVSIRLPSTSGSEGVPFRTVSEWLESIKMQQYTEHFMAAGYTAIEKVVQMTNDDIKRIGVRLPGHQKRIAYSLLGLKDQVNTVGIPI
Protocol: as §1

LYNB = LYNB (Homo sapiens, UniProt P07948); experiment: Kinase panel biochemical assay, LYNB; settings: single concentration of 1 μM, read-out: percent inhibition of kinase
Protocol: as §1

ABL1 = ABL1 (Homo sapiens, UniProt P00519); experiment: Kinase panel biochemical assay, ABL1; settings: single concentration of 1 μM, read-out: percent inhibition of kinase
Protocol: as §1

EPHB4 = EPHB4 (Homo sapiens, UniProt P54760); experiment: Kinase panel biochemical assay, EPHB4; settings: single concentration of 1 μM, read-out: percent inhibition of kinase
Protocol: as §1

p38a = p38a (Homo sapiens, UniProt Q16539); experiment: Kinase panel biochemical assay, p38a; settings: single concentration of 1 μM, read-out: percent inhibition of kinase
Protocol: as §1

GCK [1] = target: T1, GCK (Homo sapiens, UniProt Q12851); experiment: Inhibitory activity against GCK kinase (IC50); format: biochemical
T1 sequence (Q12851 1-820): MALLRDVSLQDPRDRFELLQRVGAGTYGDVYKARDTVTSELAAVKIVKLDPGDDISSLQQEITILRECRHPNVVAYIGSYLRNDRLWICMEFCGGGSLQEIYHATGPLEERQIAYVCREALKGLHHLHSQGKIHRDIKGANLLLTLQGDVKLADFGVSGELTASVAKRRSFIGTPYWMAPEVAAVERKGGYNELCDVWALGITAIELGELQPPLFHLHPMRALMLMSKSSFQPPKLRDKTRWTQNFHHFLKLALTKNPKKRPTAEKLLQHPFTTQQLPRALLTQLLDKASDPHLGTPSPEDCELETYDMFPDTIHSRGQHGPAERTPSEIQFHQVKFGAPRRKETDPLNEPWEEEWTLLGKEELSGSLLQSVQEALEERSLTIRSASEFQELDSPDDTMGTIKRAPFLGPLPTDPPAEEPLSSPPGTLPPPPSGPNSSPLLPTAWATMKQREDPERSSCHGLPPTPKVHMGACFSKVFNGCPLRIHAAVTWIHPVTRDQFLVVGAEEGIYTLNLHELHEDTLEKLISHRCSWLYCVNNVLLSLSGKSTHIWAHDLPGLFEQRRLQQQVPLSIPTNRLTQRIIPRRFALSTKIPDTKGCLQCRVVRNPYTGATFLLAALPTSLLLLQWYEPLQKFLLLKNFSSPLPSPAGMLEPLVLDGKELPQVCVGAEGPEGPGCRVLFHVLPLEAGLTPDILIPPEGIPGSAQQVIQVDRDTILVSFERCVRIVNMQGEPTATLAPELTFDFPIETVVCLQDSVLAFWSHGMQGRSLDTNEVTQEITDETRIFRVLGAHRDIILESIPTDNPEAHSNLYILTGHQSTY
Protocol: The inhibitory activities of the compounds of the present disclosure against two kinases, GCK and ACK1, were measured, and the IC50 values thereof were calculated.

FLT1 = FLT1 (Homo sapiens, UniProt P17948); experiment: Kinase panel biochemical assay, FLT1; settings: single concentration of 1 μM, read-out: percent inhibition of kinase
Protocol: as §1

TYK2 = TYK2 (Homo sapiens, UniProt P29597); experiment: Kinase panel biochemical assay, TYK2; settings: single concentration of 1 μM, read-out: percent inhibition of kinase
Chain of TYK2 (P29597 whole entry): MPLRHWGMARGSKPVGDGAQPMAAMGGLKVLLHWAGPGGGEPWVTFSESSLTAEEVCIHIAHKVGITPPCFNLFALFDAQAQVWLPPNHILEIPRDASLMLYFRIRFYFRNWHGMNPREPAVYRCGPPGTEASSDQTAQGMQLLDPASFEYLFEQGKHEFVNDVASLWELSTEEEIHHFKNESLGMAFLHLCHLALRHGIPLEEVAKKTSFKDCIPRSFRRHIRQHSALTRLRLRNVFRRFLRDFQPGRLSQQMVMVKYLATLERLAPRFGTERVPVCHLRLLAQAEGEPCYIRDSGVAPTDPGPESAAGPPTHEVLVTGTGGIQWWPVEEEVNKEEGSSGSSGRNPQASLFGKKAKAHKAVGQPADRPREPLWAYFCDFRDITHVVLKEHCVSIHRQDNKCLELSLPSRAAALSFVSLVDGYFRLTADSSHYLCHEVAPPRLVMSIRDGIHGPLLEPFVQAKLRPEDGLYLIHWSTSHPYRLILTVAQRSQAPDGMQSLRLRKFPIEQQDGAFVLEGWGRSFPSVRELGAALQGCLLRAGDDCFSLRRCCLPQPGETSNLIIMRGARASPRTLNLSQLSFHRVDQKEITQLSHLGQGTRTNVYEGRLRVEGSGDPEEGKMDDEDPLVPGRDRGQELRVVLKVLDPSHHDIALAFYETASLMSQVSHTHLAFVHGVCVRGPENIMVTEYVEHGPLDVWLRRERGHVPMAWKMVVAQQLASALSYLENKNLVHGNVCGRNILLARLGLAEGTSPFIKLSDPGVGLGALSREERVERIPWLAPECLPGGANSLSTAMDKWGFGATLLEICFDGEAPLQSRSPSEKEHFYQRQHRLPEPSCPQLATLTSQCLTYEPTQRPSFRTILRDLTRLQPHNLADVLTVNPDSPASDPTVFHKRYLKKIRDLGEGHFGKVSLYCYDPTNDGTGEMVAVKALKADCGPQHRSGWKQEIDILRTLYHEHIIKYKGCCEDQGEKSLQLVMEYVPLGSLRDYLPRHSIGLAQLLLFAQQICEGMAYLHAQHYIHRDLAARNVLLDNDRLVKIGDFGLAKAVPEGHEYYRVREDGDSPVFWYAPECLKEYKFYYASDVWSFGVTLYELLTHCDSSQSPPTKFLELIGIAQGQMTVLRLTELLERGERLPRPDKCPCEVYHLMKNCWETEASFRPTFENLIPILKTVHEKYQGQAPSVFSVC
Protocol: as §1

CSK = CSK (Homo sapiens, UniProt P41240); experiment: Kinase panel biochemical assay, CSK; settings: single concentration of 1 μM, read-out: percent inhibition of kinase
Protocol: as §1

BRK = BRK (Homo sapiens, UniProt Q13882); experiment: Kinase panel biochemical assay, BRK; settings: single concentration of 1 μM, read-out: percent inhibition of kinase
Protocol: as §1

EPHA8 = EPHA8 (Homo sapiens, UniProt P29322); experiment: Kinase panel biochemical assay, EPHA8; settings: single concentration of 1 μM, read-out: percent inhibition of kinase
Protocol: as §1

LCK = LCK (Homo sapiens, UniProt P06239); experiment: Kinase panel biochemical assay, LCK; settings: single concentration of 1 μM, read-out: percent inhibition of kinase
Protocol: as §1

GCK [2] = target: T1, GCK; experiment: Kinase panel biochemical assay, GCK; settings: single concentration of 1 μM, read-out: percent inhibition of kinase
Protocol: as §1

EPHA3 = EPHA3 (Homo sapiens, UniProt P29320); experiment: Kinase panel biochemical assay, EPHA3; settings: single concentration of 1 μM, read-out: percent inhibition of kinase
Protocol: as §1

EPHA7 = EPHA7 (Homo sapiens, UniProt Q15375); experiment: Kinase panel biochemical assay, EPHA7; settings: single concentration of 1 μM, read-out: percent inhibition of kinase
Chain of EPHA7 (Q15375 28-998): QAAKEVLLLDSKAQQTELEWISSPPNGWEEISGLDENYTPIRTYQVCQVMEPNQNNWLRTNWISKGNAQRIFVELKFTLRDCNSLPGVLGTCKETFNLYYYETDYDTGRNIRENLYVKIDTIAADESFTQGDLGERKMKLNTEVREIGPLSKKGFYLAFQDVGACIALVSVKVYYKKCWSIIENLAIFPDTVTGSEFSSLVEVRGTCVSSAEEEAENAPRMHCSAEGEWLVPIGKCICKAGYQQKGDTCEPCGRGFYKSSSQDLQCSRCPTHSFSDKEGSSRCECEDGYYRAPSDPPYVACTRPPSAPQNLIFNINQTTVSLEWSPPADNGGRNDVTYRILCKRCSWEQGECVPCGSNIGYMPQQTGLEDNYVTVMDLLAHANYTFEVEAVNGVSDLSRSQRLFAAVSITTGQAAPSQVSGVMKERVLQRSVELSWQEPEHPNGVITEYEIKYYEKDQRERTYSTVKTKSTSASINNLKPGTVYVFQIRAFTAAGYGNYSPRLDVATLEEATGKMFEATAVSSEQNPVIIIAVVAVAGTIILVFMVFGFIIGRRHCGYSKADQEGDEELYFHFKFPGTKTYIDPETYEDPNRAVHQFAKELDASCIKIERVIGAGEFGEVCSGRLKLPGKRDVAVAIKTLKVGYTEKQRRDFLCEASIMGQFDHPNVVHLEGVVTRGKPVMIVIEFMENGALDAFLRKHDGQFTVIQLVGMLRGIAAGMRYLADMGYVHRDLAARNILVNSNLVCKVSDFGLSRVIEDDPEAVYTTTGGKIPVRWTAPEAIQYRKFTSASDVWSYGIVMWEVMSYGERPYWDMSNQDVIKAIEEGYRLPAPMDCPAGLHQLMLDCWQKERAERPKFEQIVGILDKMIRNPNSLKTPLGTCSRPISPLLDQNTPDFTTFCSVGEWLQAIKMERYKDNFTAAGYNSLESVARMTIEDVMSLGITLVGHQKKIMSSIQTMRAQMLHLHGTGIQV
Protocol: as §1

OCI-AML3 (N-Ras Q61L) = experiment: Proliferation inhibitory activity, OCI-AML3; format: cell-based, human; settings: Homo sapiens, OCI-AML-3
Protocol: The inhibitory activities of the compounds of the present disclosure against the proliferation of the mt-NRAS (G12D) Ba/F3 and OCI-AML3 (mt-NRAS) cell lines were measured and the GI50 values thereof were calculated.

RIPK3 = RIPK3 (Homo sapiens, UniProt Q9Y572); experiment: Kinase panel biochemical assay, RIPK3; settings: single concentration of 1 μM, read-out: percent inhibition of kinase
Chain of RIPK3 (Q9Y572 whole entry): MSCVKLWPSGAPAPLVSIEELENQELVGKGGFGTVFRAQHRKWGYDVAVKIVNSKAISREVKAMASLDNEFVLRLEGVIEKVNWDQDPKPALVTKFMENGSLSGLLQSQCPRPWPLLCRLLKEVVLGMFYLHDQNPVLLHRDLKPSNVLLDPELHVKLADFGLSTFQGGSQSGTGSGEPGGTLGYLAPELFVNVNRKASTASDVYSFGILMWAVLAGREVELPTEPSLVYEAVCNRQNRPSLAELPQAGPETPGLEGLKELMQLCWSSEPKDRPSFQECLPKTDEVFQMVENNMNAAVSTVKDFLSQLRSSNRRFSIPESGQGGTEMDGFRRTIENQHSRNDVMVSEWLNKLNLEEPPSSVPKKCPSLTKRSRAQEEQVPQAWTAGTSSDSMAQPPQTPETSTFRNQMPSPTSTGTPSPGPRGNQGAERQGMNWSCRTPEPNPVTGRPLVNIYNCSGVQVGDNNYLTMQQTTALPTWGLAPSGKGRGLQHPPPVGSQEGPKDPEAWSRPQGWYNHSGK
Protocol: as §1

TAOK2 = TAOK2 (Homo sapiens, UniProt Q9UL54); experiment: Kinase panel biochemical assay, TAOK2; settings: single concentration of 1 μM, read-out: percent inhibition of kinase
Protocol: as §1

YSK4 = YSK4 (Homo sapiens, UniProt Q56UN5); experiment: Kinase panel biochemical assay, YSK4; settings: single concentration of 1 μM, read-out: percent inhibition of kinase
Protocol: as §1

An inhibition at 1 µM (FLT4) of at least 70%, an inhibition at 1 µM (EPHA4) of at least 70% and an inhibition at 1 µM (ZAK) of at least 70% were found for `Cc1ccc(NC(=O)c2cccc(C(F)(F)F)c2)cc1-c1cc2cnc(N)nc2c(=O)[nH]1` [Compound No. 55, N-(3-(2-amino-8-oxo-7,8-dihydropyrido[3,4-d]pyrimidin-6-yl)-4-methylphenyl)-3-(trifluoromethyl)benzamide] in this work. It also gave an inhibition at 1 µM (TXK) of at least 70%, an inhibition at 1 µM (PEAK1) of at least 70% and an inhibition at 1 µM (EPHB1) of at least 70%. It also gave an inhibition at 1 µM (FGFR2) of at least 70%, an inhibition at 1 µM (FRK) of at least 70% and an inhibition at 1 µM (EPHA5) of at least 70%. The inhibition at 1 µM (EPHA2) was at least 70%, the inhibition at 1 µM (LYNB) was at least 70% and the inhibition at 1 µM (ABL1) was at least 70%. For the same molecule, the inhibition at 1 µM (EPHB4) was at least 70%, the inhibition at 1 µM (p38a) was at least 70% and the IC50 (GCK [1]) was 1 to 10 µM. It also gave an inhibition at 1 µM (FLT1) of at least 70%, an inhibition at 1 µM (TYK2) of at least 70% and an inhibition at 1 µM (CSK) of at least 70%. It also gave an inhibition at 1 µM (BRK) of at least 70%, an inhibition at 1 µM (EPHA8) of at least 70% and an inhibition at 1 µM (LCK) of at least 70%. The inhibition at 1 µM (GCK [2]) was at least 70%, the inhibition at 1 µM (EPHA3) was at least 70% and the inhibition at 1 µM (EPHA7) was at least 70%. For the same molecule, the GI50 (OCI-AML3 (N-Ras Q61L)) was under 0.5 µM, the inhibition at 1 µM (RIPK3) was at least 70% and the inhibition at 1 µM (TAOK2) was at least 70%. For the same molecule, the inhibition at 1 µM (YSK4) was at least 70%.
